Test results: ChEMBL document CHEMBL3872213, “Synthesis and biological activity of furoxan derivatives against Mycobacterium tuberculosis” (Eur J Med Chem, 2016)
In brackets after ≈: the same amount, converted by molar mass.

How the values were obtained:
[1] = system: Mycobacterium tuberculosis; test: Antitubercular activity against clinical isolates of isoniazid/rifampicin/streptomycin/ethambutal resistant Mycobacterium tuberculosis after 7 days by REMA method; format: functional; conditions: 168 h
[2] = system: Mycobacterium tuberculosis; test: Antitubercular activity against multi-drug resistant Mycobacterium tuberculosis; format: functional

Row | Structure (SMILES) | MIC90 [1] [µM] | MIC90 [2] [µM]
1 | O=C(N/N=C/c1ccc(Oc2no[n+]([O-])c2S(=O)(=O)c2ccccc2)cc1)c1ccncc1 | 7 (≈ 3.26 µg/mL) | 
2 | O=C(N/N=C/c1ccc(O)cc1)c1ccncc1 |  | > 62
3 | O=C(N/N=C/c1ccccc1Oc1no[n+]([O-])c1S(=O)(=O)c1ccccc1)c1ccncc1 | 50 (≈ 23.3 µg/mL) | 
4 | O=C(N/N=C/c1cccc(Oc2no[n+]([O-])c2S(=O)(=O)c2ccccc2)c1)c1ccncc1 | 21.3 (≈ 9.91 µg/mL) | 
5 | O=C(N/N=C/c1ccc(Oc2no[n+]([O-])c2-c2ccccc2)cc1)c1ccncc1 | 24.3 (≈ 9.75 µg/mL) | 
